Where a name gives a salt, the structure may show the parent alone.

Sequence of human AT2R fused to Cb23 (P50052 whole entry, looked up, the tested form may be a part): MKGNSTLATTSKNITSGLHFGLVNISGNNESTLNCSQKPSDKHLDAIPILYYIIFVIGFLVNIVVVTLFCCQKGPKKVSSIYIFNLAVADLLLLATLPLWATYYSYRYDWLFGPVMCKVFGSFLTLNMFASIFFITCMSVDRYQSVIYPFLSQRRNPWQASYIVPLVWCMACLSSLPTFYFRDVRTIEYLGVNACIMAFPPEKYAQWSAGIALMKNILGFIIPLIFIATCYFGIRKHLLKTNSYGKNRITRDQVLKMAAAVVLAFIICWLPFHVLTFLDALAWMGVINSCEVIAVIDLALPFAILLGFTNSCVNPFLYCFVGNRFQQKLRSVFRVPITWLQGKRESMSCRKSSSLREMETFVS
Sequence of human AT1R (P30556 whole entry, the tested form may be a part): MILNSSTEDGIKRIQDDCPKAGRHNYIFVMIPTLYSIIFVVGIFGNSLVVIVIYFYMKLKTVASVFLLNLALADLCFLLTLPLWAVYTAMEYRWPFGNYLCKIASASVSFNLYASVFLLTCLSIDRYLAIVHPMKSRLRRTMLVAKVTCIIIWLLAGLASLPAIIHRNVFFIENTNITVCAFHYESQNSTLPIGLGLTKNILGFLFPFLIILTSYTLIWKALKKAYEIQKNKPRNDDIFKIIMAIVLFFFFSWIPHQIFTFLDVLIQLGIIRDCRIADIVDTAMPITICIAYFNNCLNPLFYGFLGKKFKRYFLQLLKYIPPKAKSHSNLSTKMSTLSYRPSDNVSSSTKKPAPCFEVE

For one assay, the target named is human AT1R (Homo sapiens (Human), UniProt P30556). The assay can be described thus: Counterscreen radioligand binding assay, displacement of 125I-[Sar1, Ile8]-Angiotensin II, hAT1R WT. To be noted: 125I-[Sar1, Ile8]-Ang II, compound at 1 μM, semi-quantitative score, read-out: % Displaced radioligand at 1 μM. As to the method:
(§1) All synthesized ligands were evaluated in a radioligand assay by displacing ^125I-[Sar1, Ile8]-Angiotensin II (Perkin Elmer, NEX248050UC) from human AT2R fused to Cb23 or human/rodent/cynomolgus/minipig/dog WT AT2R in HEK-293 cells membrane preparations, using C21 (Vicore Pharma) and Angiotensin II (endogenous ligand) as reference. The affinity was determined using an eight-point dose-response curve, each point performed in duplicates. The compounds were also evaluated in a counterscreen binding assay for displacement of ^125I-[Sar1, Ile8]-Angiotensin II binding to human AT1R in HEK-293 cell membranes. For AT1R, the percent displacement was determined at 1 μM and […] (in duplicates) or using an eight-point dose-response curve, each point performed in duplicates with Candesartan and Losartan used as reference.
(§2) For the AT2R/AT1R binding assays, cell membranes, expressing AT2R_Cb23, AT2R or AT1R, were incubated with 0.05 nM ^125I-[Sarl, Ile8]-Ang II. The ligand competition assay was performed in a total volume of 100 μL assay buffer (50 mM Tris, 5 mM MgCl2, 1 mM EDTA, 0.1% BSA, pH 7.4), at concentrations ranging from […] to 10 μM. For each experiment, each ligand concentration was tested in duplicate. Non-specific binding (NSB) was determined by the inclusion of 10 μM unlabeled [Sarl]-Ang II (Sigma Aldrich). The reaction was initiated by the addition of radioligand, after which the plates were incubated at 25° C. for one hour. The reaction was terminated by rapid filtration using a vacuum harvester, applying six washes with 100 μL of ice-cold wash buffer (50 mM Tris.HCl, pH 7.4). The filter plates GF/C (Perkin Elmer) were pre-soaked in 0.5% PEI. The residual amount of radioactivity was determined via liquid scintillation counting. IC50 values, representing the concentration at which each ligand displaced 50% of ^125I-[Sarl, Ile8]-Ang II, were calculated using GraphPad Prism 7.02 by applying a Non-linear regression equation (variable slope, four parameters) on the data. The obtained values serve as affinity estimates for each ligand and their ability to compete against the radioligand for binding with AT2R or AT1R, respectively.
Turning to `c1ccc2sc(CN3CCN(c4cc(NCC5CC5)ccc4-c4nn[nH]n4)CC3)nc2c1` [Compound A-62, 3-[4-(1,3-benzothi-azol-2-ylmethyl)-piperazin-1-yl]-N-(cyclopropylmeth-yl)-4-(2H-tetrazol-5-yl)aniline], the inhibition at 1 µM was less than 30%.

The same assay, now with this note: 125I-[Sar1, Ile8]-Ang II, compound at 10 μM, semi-quantitative score, read-out: % Displaced radioligand at 10 μM.
Consider `c1ccc2sc(CN3CCN(c4cc(NCC5CC5)ccc4-c4nn[nH]n4)CC3)nc2c1` [Compound A-62, 3-[4-(1,3-benzothi-azol-2-ylmethyl)-piperazin-1-yl]-N-(cyclopropylmeth-yl)-4-(2H-tetrazol-5-yl)aniline], for which the inhibition at 10 µM was less than 30%.

Another assay concerns the target human AT2R fused to Cb23 (Homo sapiens, UniProt P50052). As to the kind of experiment: Radioligand binding assay, displacement of 125I-[Sar1, Ile8]-Angiotensin II, hAT2R Cb23.
Settings: not given
How it is done:
as §1, §2
In general terms: In a radioligand displacement assay an active substance lowers the binding of a labelled ligand.
In general, IC50 refers to the concentration needed to halve the response being measured. In turn, `c1ccc2sc(CN3CCN(c4cc(NC5CC5)ccc4-c4nn[nH]n4)CC3)nc2c1` [Compound A-61, 3-[4-(1,3-benzothi-azol-2-ylmethyl)-piperazin-1-yl]-N-cyclopropyl-4-(2H-tetrazol-5-yl)aniline hydrochloride] had an IC50 of 14.7 µM.

The assay is the same for the next values; noted with them: displacement of 125I-[Sar1, Ile8]-Angiotensin II, human AT2R fused to Cb23, HEK-293 cell membrane preparations; read-out: Binding affinity on hAT2R_Cb23 IC50.
In the case of `O=C(O)c1ccccc1CN1CCN(c2nc3ccccc3s2)CC1` [Compound A-01, 2-[[4-(1,3-benzothiazol-2-yl)piperazin-1-yl]methyl]benzoic acid], the IC50 was 33.6 µM.

On to `CCS(=O)(=O)NC(=O)c1ccccc1N1CCN(Cc2nc3ccccc3s2)CC1` [Compound A-04, 2-[4-(1,3-benzothiazol-2-ylmethyl)piperazin-1-yl]-N-ethylsulfonyl-benzamide], for which the IC50 is 22.8 µM. As to `O=[N+]([O-])c1ccc2nc(N3CCN(Cc4ccccc4-c4nn[nH]n4)CC3)sc2c1` [Compound A-07, 6-nitro-2-[4-[[2-(2H-tetrazol-5-yl)-phenyl]methyl]-piperazin-1-yl]-1,3-benzothiazole], the IC50 came out at 28.8 µM. `Cn1c(CN2CCN(c3ccccc3-c3nn[nH]n3)CC2)nc2ccccc21` [Compound A-15]: the IC50 was 42.9 µM.

Turning to `Cc1ccc(-c2nn[nH]n2)c(N2CCN(Cc3nc4ccccc4n3C)CC2)c1` [Compound A-16, 1-methyl-2-[[4-[5-methyl-2-(2H-tetrazol-5-yl)phen-yl]piperazin-1-yl]-methyl]benzimid-azole], the IC50 stood at 21.7 µM. Same read-out and setting: to `O=c1[nH]c(CN2CCN(c3ccccc3-c3nn[nH]n3)CC2)nc2ccccc12` [Compound A-26, 2-[[4-[2-(2H-tetrazol-5-yl)phen-yl]piperazin-1-yl]-methyl]-3H-quin-azolin-4-one] belongs 111 µM. Consider `Cc1ccc(-c2nn[nH]n2)c(N2CCN(Cc3nc4ccccc4c(=O)[nH]3)CC2)c1` [Compound A-27, 2-[[4-[5-methyl-2-(2H-tetrazol-5-yl)-phenyl]piperazin-1-yl]methyl]-3H-quinazolin-4-one], for which the IC50 was 35.9 µM. On to `O=c1[nH]c(CN2CCN(c3cc(C(F)(F)F)ccc3-c3nn[nH]n3)CC2)nc2ccccc12` [Compound A-29, 2-[[4-[2-(2H-tetrazol-5-yl)-5-(trifluoromethyl)-phenyl]piperazin-1-yl]methyl]-3H-quinazolin-4-one], for which the IC50 was 42.4 µM.

Turning to `CC(C)=Cc1ccc(-c2nn[nH]n2)c(N2CCN(Cc3nc4ccccc4c(=O)[nH]3)CC2)c1` [Compound A-30, 2-[[4-[5-(2-methyl-prop-1-enyl)-2-(2H-tetrazol-5-yl)-phenyl]piperazin-1-yl]methyl]-3H-quinazolin-4-one], the IC50 came to 114 µM. Take `COCCOc1ccc(-c2nn[nH]n2)c(N2CCN(Cc3nc4ccccc4s3)CC2)c1` [Compound A-56, 2-[[4-[5-(2-meth-oxyethoxy)-2-(2H-tetrazol-5-yl)phen-yl]piperazin-1-yl]-methyl]-1,3-benzo-thiazole]: the 50% inhibitory concentration (IC50) amounted to 61.7 µM. For `c1ccc2sc(CN3CCN(c4cc(OCC5COC5)ccc4-c4nn[nH]n4)CC3)nc2c1` [Compound A-58, 2-[[4-[5-(oxetan-3-ylmethoxy)-2-(2H-tetrazol-5-yl)phen-yl]piperazin-1-yl]-methyl]-1,3-benzo-thiazole], the IC50 was found to be 17.2 µM.

As to `COCCNc1ccc(-c2nn[nH]n2)c(N2CCN(Cc3nc4ccccc4s3)CC2)c1` [Compound A-63, 3-[4-(1,3-benzothi-azol-2-ylmethyl)-piperazin-1-yl]-N-(2-methoxyethyl)-4-(2H-tetrazol-5-yl)aniline], the IC50 was determined as 21.6 µM.

For the compound `CN1CCN(c2ccc(-c3nn[nH]n3)c(N3CCN(Cc4nc5ccccc5s4)CC3)c2)CC1` [Compound A-66, 2-[[4-[5-(4-methyl-piperazin-1-yl)-2-(2H-tetrazol-5-yl)-phenyl]piperazin-1-yl]methyl]-1,3-benzothiazole], the IC50 amounted to 11.8 µM. Regarding `CC(C)Cc1ccc(-c2nn[nH]n2)c(N2CCN(Cc3cc(=O)n4c(ccn4C)n3)CC2)c1` [Compound A-74, 5-[[4-[5-isobutyl-2-(2H-tetrazol-5-yl)-phenyl]piperazin-1-yl]methyl]-1-methyl-pyrazolo-[1,5-a]pyrimidin-7-one], the IC50 came out at 11.7 µM.

Regarding `c1cnnc(CN2CCN(c3cc(C4CC4)ccc3-c3nn[nH]n3)CC2)c1` [Compound A-91, 3-[[4-[5-cyclopropyl-2-(2H-tetrazol-5-yl)phenyl]piperazin-1-yl]methyl]pyridazine], the IC50 was determined as 23.7 µM. With `Cc1nnc(CN2CCN(c3cc(CC(C)C)ccc3-c3nn[nH]n3)CC2)o1` [Compound A-92], the IC50 came to 15.6 µM. For the compound `Cc1nc(=O)cc(CN2CCN(c3cc(CC(C)C)ccc3-c3nn[nH]n3)CC2)[nH]1` [Compound A-95, 6-[[4-[5-isobutyl-2-(2H-tetrazol-5-yl)phenyl]piperazin-1-yl]methyl]-2-methyl-1H-pyrimidin-4-one], the IC50 is 43.3 µM. Turning to `Cc1noc(CN2CCN(c3cc(CC(C)C)ccc3-c3nn[nH]n3)CC2)n1` [Compound A-96, 5-[[4-[5-isobutyl-2-(2H-tetrazol-5-yl)-phenyl]piperazin-1-yl]methyl]-3-methyl-1,2,4-oxa-diazole], the IC50 came to 13.2 µM. `Cc1nccc(CN2CCN(c3cc(CC(C)C)ccc3-c3nn[nH]n3)CC2)n1` [Compound A-99]: the IC50 was 33.9 µM. Take `Cc1cc(=O)nc(CN2CCN(c3cc(CC(C)C)ccc3-c3nn[nH]n3)CC2)[nH]1` [Compound A-100, 2-[[4-[5-isobutyl-2-(2H-tetrazol-5-yl)phenyl]piperazin-1-yl]methyl]-6-methyl-1H-pyrimidin-4-one]: the IC50 was found to be 16.5 µM. With `Cc1ncc(CN2CCN(c3cc(CC(C)C)ccc3-c3nn[nH]n3)CC2)cn1` [Compound A-103, 5-[[4-[5-isobutyl-2-(2H-tetrazol-5-yl)-phenyl]piperazin-1-yl]methyl]-2-methyl-pyrimidine], the IC50 was found to be 12.2 µM.

For the compound `CC(C)Cc1ccc(-c2nn[nH]n2)c(N2CCN(Cc3cccc(C#N)n3)CC2)c1` [Compound A-107, 6-[[4-[5-isobutyl-2-(2H-tetrazol-5-yl)-phenyl]piperazin-1-yl]methyl]pyr-idine-2-carbonitrile], the IC50 came to 54.9 µM. Take `CC(C)Cc1ccc(-c2nn[nH]n2)c(N2CCN(Cc3ncon3)CC2)c1` [Compound A-108, 3-[[4-[5-isobutyl-2-(2H-tetrazol-5-yl)-phenyl]piperazin-1-yl]methyl]-1,2,4-oxadiazole]: the IC50 came to 41.7 µM.

On to `CC(C)Cc1ccc(-c2nn[nH]n2)c(N2CCN(Cc3cn(C)cn3)CC2)c1` [Compound A-109, 1-[5-isobutyl-2-(2H-tetrazol-5-yl)phen-yl]-4-[(1-methyl-imidazol-4-yl)meth-yl]piperazine], for which the IC50 came to 40.4 µM. `CC(C)Cc1ccc(-c2nn[nH]n2)c(N2CCN(Cc3ccn(C)n3)CC2)c1` [Compound A-110, 1-[5-isobutyl-2-(2H-tetrazol-5-yl)phen-yl]-4-[(1-methyl-pyrazol-3-yl)meth-yl]piperazine]: the IC50 turned out to be 17.8 µM.
